The text below walks through data of patent US11730712B2, “Functionalized long-chain hydrocarbon mono- and di-carboxylic acids and derivatives thereof, and their use for the prevention or treatment of disease” (ESPERVITA THERAPEUTICS, INC., priority 2021, dated 2023).

The subject of one data set is C57BL/6 mice with UUO. Kind of data set: Murine unilateral ureter obstruction (UUO) renal fibrosis model. Type of data set: in vivo, mouse. The note with it: 100 mg/kg daily oral gavage, 9 days after UUO. As for the experimental part:
Animal studies were carried out in accordance with the principles of laboratory animal care of the Canadian Council on Animal Care guidelines. Male C57BL/6 mice were obtained from Charles Rivers Laboratories. FIG. 13A summarizes the timeline for this experiment. UUO model was created as follows: male C57BL6J mice (8 weeks old from Charles River Laboratories) were anesthetized with 4% isofluorane and an anesthetic plane was maintained throughout surgery at 1.5-2% isofluorane with 1 L/min oxygen. A 0.5 cm incision was made longitudinally on the left flank. The left ureter and lower pole of the kidney was exposed, and the ureter was ligated with a […] in close proximity to the renal pelvis. A sham operation control group was created by surgical exposure of the left ureter and lower pole of the kidney followed by closure of the incision. Subcutaneous fluids were given (1.5 ml 0.9% NaCl) and the incision was closed with 4′0 silk sutures followed by staples for the skin. Starting the day of model creation, the animals were given a daily dose of either vehicle alone (sham surgery and UUO control, 1.5% CMC and 0.2% Tween-20) or vehicle containing Compound I-32 or Compound I-1 (at 100 mg/kg) by oral gavage for 9 days following surgery. At the end of the treatment period mice were anesthetized prior to euthanasia by bilateral thoraco-abdominal incision. Blood was collected by cardiac puncture, followed by kidney perfusion with cold saline through left ventricular cannulation. The left kidney was removed, a sample taken and fixed in formalin for histological analysis. Trichrome staining was done on formalin-fixed sections (4 μm) following deparaffinization according to manufacturers instructions (Sigma HT15-1KT). Images were quantified by measuring the percentage of positive area using Image J on micrographs captured at ×200 magnification using the BX41 Olympus microscope. Statistical analysis was performed using GraphPad Prism 8. A one-way ANOVA was used to determine significance. A p-value of less than or equal to 0.05 was used as the criterion of significance. This route was selected because it simulates oral administration to mammalian, including human, subjects and ensures that the correct dose of compound is ingested by each animal.
Immunohistochemistry. Formalin-fixed kidneys were embedded in paraffin, then sectioned at 4 μm. After deparaffinization, they were stained with Masson's trichrome to assess collagen content (Sigma Aldrich, catalogue no. HT15-1T), picrosirius red (PSR) to more specifically assess pathogenic collagens I and III (Polysciences, Inc., catalogue no. 24901-500), αSMA as a marker of activated, profibrotic fibroblasts (PIERCE, catalogue no. MA1-06110; 30 min steaming for antigen retrieval, antibody used at 1:5000 for 2 h at room temperature), CD3 to identify T-lymphocytes (Dako, catalogue no. A0452; 30 min steaming for antigen retrieval, antibody used at 1:500 overnight at 4° C.) and F4/80 to identify, macrophages (done by the McMaster Histology Facility). Slides were counterstained with hematoxylin, dehydrated twice with 90% ethanol, cleared twice with xylene, coverslipped with mounting media, and then left to dry overnight before imaging. Masson's trichrome, αSMA, CD3 and F4/80 were imaged under transmitted light and quantified using ImageJ. The Olympus IX81 fluorescence microscope driven by Metamorph was used to image and quantify PSR staining. Images were quantified by measuring the percentage of positive area. All micrographs were captured at ×20 magnification.

Another data set has as its system mouse kidney. The data set is described as follows: Kidney histology in DEN NASH-HCC mice after 4 weeks of treatment. Conditions: for Glomerular score, individual mice / Interstitial fibrosis score, individual mice / Interstitial inflammation score, individual mice / Tubular injury score, individual mice / Tubular mitoses score, individual mice / Tubular vacuoles score, individual mice / Glomerular score, Average / Interstitial fibrosis score, Average / Interstitial inflammation score, Average / Tubular injury score, Average / Tubular mitoses score, Average / Tubular vacuoles score, Average: kidney; for Glomerular score, Average / Interstitial fibrosis score, Average / Interstitial inflammation score, Average / Tubular injury score, Average / Tubular mitoses score, Average / Tubular vacuoles score, Average: 8 mice. It counts as in vivo. Also on record: key to Tubular injury score, Average / Tubular mitoses score, Average / Tubular vacuoles score, Average / Interstitial inflammation score, Average / Interstitial fibrosis score, Average / Glomerular score, Average: 0 = not present to 5 = severe, overwhelming change; mean of mice; key to Tubular mitoses score, individual mice / Interstitial inflammation score, individual mice / Interstitial fibrosis score, individual mice / Glomerular score, individual mice / Tubular injury score, individual mice / Tubular vacuoles score, individual mice: 0—not present; 1—minimal, inconspicuous change; 2—slight, noticeable but not a prominent feature; 3—moderate, prominent feature; 4—marked, dominant but not overwhelming feature; 5—severe, overwhelming change. As for the experimental part: Kidney Histology. Following fixation with 10% neutral buffered formalin for 46 hours, kidneys were cleaved longitudinally through hilium and immersed in 70% ethanol. Kidneys were then processed, paraffin embedded, serially sectioned and stained with haematoxylin and eosin (H&E) and Masson's Trichrome (MTC) by the McMaster Immunology Research Centre histology Core Facility. Blinded kidney histological scores for tubular injury, tubular mitoses, tubular vacuoles, interstitial inflammation, interstitial fibrosis, glomerular were assigned by pathologists.
Kidney Histology. […] In Table 15, pathologist's scoring is as follows: 0—not present; 1—minimal, inconspicuous change; 2—slight, noticeable but not a prominent feature; 3—moderate, prominent feature; 4—marked, dominant but not overwhelming feature; 5—severe, overwhelming change.

Where “and” joins values, the source holds several entries; their conditions need not be identical. Equal entries are not always repeated.

On to `CC(C)(CCCCc1ccc(CCCCC(C)(C)C(=O)O)cc1)C(=O)O` [Compound I-1, 6-[4-(5-carboxy-5-methylhexyl)-phenyl]-2,2-dimethylhexanoic acid], for which, in the data set with C57BL/6 mice with UUO, the “T-lymphocyte infiltration (CD3 stain)” value is given as “no effect on T-lymphocytes”; the “UUO-induced increases in Trichrome and αSMA (renal fibrosis)” value is “decreased”; the “macrophage infiltration (F4/80 stain)” value is “significantly reduced macrophage infiltration”. In addition, in the data set on mouse kidney, the “kidney pathological differences vs Vehicle” value is “no pathological differences”; the “Glomerular score, individual mice” value was 0 (3×) and 1 (2×) and 0.5 (3×); the “Interstitial fibrosis score, individual mice” value is 1 (4×) and 0.5 (2×) and 0 and 1.5; the “Interstitial inflammation score, individual mice” value is 0 (5×) and 0.5 (3×). Further, in the data set with mouse kidney, the “Tubular injury score, individual mice” value is 1.5 and 1 and 0.5 (4×) and 0 (2×); the “Tubular mitoses score, individual mice” value was 1 and 0 (3×) and 0.5 (4×); the “Tubular vacuoles score, individual mice” value was 3.5 and 1.5 (3×) and 3 and 0.5 (2×) and 1; the “Glomerular score, Average” value was determined as 0.44. Besides, in the data set with mouse kidney, the “Interstitial fibrosis score, Average” value stood at 1.0; the “Interstitial inflammation score, Average” value stood at 0.19; the “Tubular injury score, Average” value turned out to be 0.56; the “Tubular mitoses score, Average” value is 0.38. Besides, the “Tubular vacuoles score, Average” value in the data set with mouse kidney stood at 1.63.
Take `CC(C)(CCCCc1cccc(CCCCC(C)(C)C(=O)O)c1)C(=O)O` [Compound I-32, 6-[3-(5-carboxy-5-methylhexyl)-phenyl]-2,2-dimethylhexanoic acid]: in the data set with C57BL/6 mice with UUO, the “T-lymphocyte infiltration (CD3 stain)” value is listed as “no effect on T-lymphocytes”; the “UUO-induced increases in Trichrome and αSMA (renal fibrosis)” value is on record as “trend to reduction”; the “macrophage infiltration (F4/80 stain)” value is listed as “significantly reduced macrophage infiltration”. For the same compound, in the data set with mouse kidney, the “kidney pathological differences vs Vehicle” value is “no pathological differences”; the “Glomerular score, individual mice” value was 0 and 0.5 (5×) and 1 (2×); the “Interstitial fibrosis score, individual mice” value is 0.5 (2×) and 1 (3×) and 2 and 1.5 (2×); the “Interstitial inflammation score, individual mice” value was 0 (3×) and 2.5 and 1 and 1.5 and 0.5 (2×). For the same compound, in the data set on mouse kidney, the “Tubular injury score, individual mice” value was 0 (3×) and 1.5 (4×) and 1; the “Tubular mitoses score, individual mice” value is 0 (4×) and 1 (2×) and 0.5 (2×); the “Tubular vacuoles score, individual mice” value was 0.5 and 3.5 and 1.5 and 3 and 2 and 1 (3×); the “Glomerular score, Average” value amounted to 0.56. In the data set on mouse kidney, the “Interstitial fibrosis score, Average” value was 1.13; the “Interstitial inflammation score, Average” value is listed as 0.75; the “Tubular injury score, Average” value turned out to be 0.88; the “Tubular mitoses score, Average” value turned out to be 0.38. In addition, the “Tubular vacuoles score, Average” value in the data set on mouse kidney stood at 1.69.
